Experimental data as given in patent US5585374A, “Amide derivatives” (John Wyeth Brother, Limited, priority 1992, dated 1996).

Tests used:
[1] = molecular target: T1, 5-HT1A receptor (Rattus norvegicus, UniProt P19327); test: 5-HT1A receptor binding activity in rat hippocampal membrane homogenate
T1 construct: rat hippocampal membrane homogenate; from tissue; host or cells: rat hippocampus (membrane homogenate)
T1 sequence (P19327 1-422): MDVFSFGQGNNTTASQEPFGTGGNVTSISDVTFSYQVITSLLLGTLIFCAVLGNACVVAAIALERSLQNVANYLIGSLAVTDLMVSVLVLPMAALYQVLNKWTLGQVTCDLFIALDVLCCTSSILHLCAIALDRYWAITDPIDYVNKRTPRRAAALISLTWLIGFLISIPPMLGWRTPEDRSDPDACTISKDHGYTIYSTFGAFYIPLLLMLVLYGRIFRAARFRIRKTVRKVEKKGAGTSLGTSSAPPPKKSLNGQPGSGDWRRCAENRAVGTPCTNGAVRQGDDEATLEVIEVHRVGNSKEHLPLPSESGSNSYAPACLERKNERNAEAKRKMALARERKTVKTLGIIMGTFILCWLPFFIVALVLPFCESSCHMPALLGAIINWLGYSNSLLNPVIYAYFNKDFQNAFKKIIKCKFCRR
Method: The compounds of the invention are tested for 5-HT1A receptor binding activity in rat hippocampal membrane homogenate by the method of B S Alexander and M D Wood, J Pharm Pharmacol, 1988, 40, 888-891.

[2] = system: α1 sites; test: affinity for α1 sites (procedure of Marrow et al.); type: binding
[3] = molecular target: T2, 5-HT1A receptor (Cavia porcellus, UniProt A0A286Y074); test: 5-HT1A receptor antagonism: antagonism of 5-carboxamidotryptamine in guinea-pig ileum in vitro; conditions: read-out: pA2 (converted)
T2 construct: in the guinea-pig ileum in vitro; from tissue; host or cells: guinea-pig ileum
T2 sequence (A0A286Y074 1-421): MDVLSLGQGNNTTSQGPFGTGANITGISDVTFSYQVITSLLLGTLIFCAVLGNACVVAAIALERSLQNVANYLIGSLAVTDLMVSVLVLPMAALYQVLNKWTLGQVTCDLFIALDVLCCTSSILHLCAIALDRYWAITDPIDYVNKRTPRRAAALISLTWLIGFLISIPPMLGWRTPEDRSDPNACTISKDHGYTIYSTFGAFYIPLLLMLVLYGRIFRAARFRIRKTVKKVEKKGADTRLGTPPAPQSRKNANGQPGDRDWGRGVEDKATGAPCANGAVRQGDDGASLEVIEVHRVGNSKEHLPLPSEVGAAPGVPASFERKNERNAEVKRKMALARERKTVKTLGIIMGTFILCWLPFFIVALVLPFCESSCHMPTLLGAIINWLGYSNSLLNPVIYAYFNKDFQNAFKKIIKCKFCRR
Method: The compounds are tested for 5-HT1A receptor antagonism activity in a test involving the antagonism of 5-carboxamidotryptamine in the guinea-pig ileum in vitro (based upon the procedure of Fozard et al, Br J Pharmac, 1985, 86, 601 P).

IC50 [1] [nM]	IC50 [2] [nM]	Kb [3] [nM]	Compound
1.2	1080	0.794	COc1ccccc1C1CCN(CCC(C(=O)N2CCCCCC2)c2ccccc2)CC1 (stereo not drawn) [2,3,4,5,6,7-hexahydro-1-(4-(1-(1,2,3,4,5,6-hexahydro-4-(2-methoxyphenyl)pyridyl))-2-phenylbutyryl)-1H-azepine]
0.2	250	1	COc1ccccc1C1CCN(CCC(C(=O)N2CCCCCC2)c2ccccc2)CC1 (single isomer, unassigned; (+)) [(+)-enantiomer]
